Experimental findings from US10112978B2, “Peptide and use thereof” (OSAKA UNIVERSITY, priority 2014, dated 2018) are described below.

The subject of experiment [1] is PMA-differentiated THP-1 cells. As to the kind of experiment: Cytokine and chemokine production in PMA-differentiated THP-1 cells (ELISA). The experiment is classed as cell-based, human. Here is the method: THP-1 cells were suspended at 5×10^5 cells/mL in RPMI1640 medium containing 50 ng/mL PMA (phorbol 12-myristate 13-acetate) and 10% FBS, and seeded at 5×10^5 cells/well on a 24-well plate. The cells were cultured in a CO2 incubator for 2 days for differentiation into macrophages. After the 2-day culture, the medium was removed, an OSK-1 solution in RPMI1640 medium containing 10% FBS was added to the wells, and overnight culture was performed. Sixteen hours after the addition, the culture supernatant was harvested, and the cytokine concentrations in the supernatant were measured by ELISA.
The experiment in this example was performed in the same manner as in Example 3, and the IL-1β, IL-18, TNFα, IL-6, RANTES, MIP-1α and MIP-1β concentrations in the culture supernatant were measured.
Background: ELISA stands for enzyme-linked immunosorbent assay.

Another experiment concerns NFκB. In words: Activation of NFκB in THP-1 cells (TNFα production with or without NFκB inhibitors). The experiment is classed as cell-based, human. The note with it: for production of TNFα: OSK-1 100 ng/mL. On the procedure:
THP-1 cells were diluted to 5×10^5 cells in 500 μL of RPMI1640 medium containing 10% FBS, and the cell suspension was added to a 24-well plate at 500 μL/well. QNZ (Enzo, final concentration: 10 μM) in RPMI1640 medium containing 10% FBS, BAY11-7082 (Enzo, final concentration: 10 μM) in RPMI1640 medium containing 10% FBS and RPMI1640 medium containing 10% FBS were added to the plate, and the cells were cultured for 2.5 hours. OSK-1 was added to the wells at a final concentration of 100 ng/mL, and the cells were cultured for 2 hours. After that, the culture supernatant was harvested, and the TNFα concentration in the supernatant was measured by ELISA.

For the sequence “ELKLIFLHRLKRLRKRLKRK (Ac-ELKLIFLHRLKRLRKRLKRK-NH2) [OSK-1]”, in experiment [1] (Example 11, ELISA), the “production of the chemokines and cytokines (IL-1β, IL-18, TNFα, IL-6, RANTES, MIP-1α and MIP-1β)” value is “induced the production of the chemokines and cytokines in the PMA-differentiated THP-1 cells in an OSK-1 concentration dependent manner”. Besides, the “production of the cytokines (IL-1β, IL-18, TNFα and IL-6 concentrations in the culture supernatant)” value in experiment [1] (OSK-1 at 30 μg/mL, 16 hours, ELISA) is “strongly induced the production of the cytokines”. Moreover, the “production of TNFα” value in the experiment on NFκB (2 hours) is on record as “induced the production of TNFα”; with NFκB (in the presence of NFκB inhibitor BAY11-7082 10 μM), “inhibited in the presence of the NFκB inhibitor QNZ or BAY11-7082”; with NFκB (in the presence of NFκB inhibitor QNZ 10 μM), “inhibited in the presence of the NFκB inhibitor QNZ”. Moreover, the “activating NFκB” value with NFκB (concluded from TNFα production with and without NFκB inhibitors) is given as “effective for activating NFκB”.
